These substances were tested on volunteer human subjects (assay: Human clinical anti-perspirant study, gravimetric perspiration on lower back). Conditions: Table D study; Acetyl Hexapeptide-30 and Pentapeptide-18 tested in combination.
Assay type: in vivo
Description: The effectiveness of the peptide material at addressing perspiration was evaluated in a human clinical study. The screening of various potential sweat-reducing materials was determined using at least 20 volunteer human subjects. Twenty-four subjects were planned for enrollment into the study to ensure that 20 subjects completed testing. Baseline screening was performed on up to 40 subjects to ensure a sufficient number of subjects were enrolled in the treatment application phase who met minimum sweat production criteria of 50 mg over a 20-minute collection period. As shown in Table C and Table D, each subject had seven test materials randomly applied to the lower back in 2 inch by 2 inch treatment application areas and one site was left untreated on each subject as a control. The study subjects participated in a 4-day test period consisting of four, supervised treatment applications, spaced 24-hours apart, and one post treatment application sweat collection period 1-hour post-product application on Day 4. The study staff visually assessed the application sites, and applied each of the test materials to the backs of the subjects. […] Subjects were instructed to not leave the room during the approximately 60-minute test period. • Absorbent gauze sponges, 2 inch by 2 inch (two 4-ply sponges, Avant Gauze® Sponges), were applied to the eight sites on the lower back of the subjects. Sponges were occluded on the site using 3MTM BlendermTM Medical Tape, and affixed to the site using Scanpor® Paper Tape. • The sponges remained in place for a 20-minute acclimation period. […] Subjects were not allowed to consume water during this 20-minute period. • Following the 20-minute period, the sponges with the 3MTM BlendermTM Medical Tape were removed and sealed in a bag or container for weighing within 1-hour of removal. • After exiting the temperature-controlled room, the subjects again sat in normal ambient indoor temperature for at least 20-minutes, and trained technicians determined the body temperature, pulse, and blood pressure of each subject. […]
With Acetyl Dipeptide-1 Cetyl Ester the “Activity of the peptide in the presence of a salt based cosmetic astringent, in words” value (“Activity of the peptide” for short) was “high activity”. For Acetyl Hexapeptide-30, the “Activity of the peptide” value was “high activity”. For Pentapeptide-18, the “Activity of the peptide” value was “high activity”.
